Publication PMC6127852 (Journal of Enzyme Inhibition and Medicinal Chemistry, 2018)
≈ marks a conversion by molar mass, not a printed value. Where two headings read alike, the source gives them in different places.

Tests used:
[1] = system: bloodstream form T. brucei (strain 221); details: read-out: T. brucei IC50 (reference drug), ref [83]; cited from earlier work
P. aeruginosa ATCC 27853 = experiment: Broth microdilution MIC, P. aeruginosa ATCC 27853; type: cell-based; details: Pseudomonas aeruginosa, ATCC27853; Table S2
Outline: (§1)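 Cation (Ca2+/Mg2+)-adjusted Mueller–Hinton broth, standard CLSI broth microdilution. MIC determined per strain, tested in triplicate.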

calf thymus ctDNA = experiment: UV–Vis titration with ctDNA (Scatchard); type: binding; details: for Hypochromic effect H/%, ctDNA (from experimental data): footnote e: calculated from experimental data
Outline: (§2)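 Polynucleotides titrated into compound at 1.48 × 10^−5 mol dm^−3 in PBS (I = 0.05 mol dm^−3, pH 7.0), with UV–Vis spectra in 1 cm quartz cells; ctDNA sonicated and filtered, concentration as nucleobases. Ks and n from Scatchard analysis, in some cases only from data at r ≥ 0.1.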

[2] = system: polyA-polyU (RNA, polymer) A/U; experiment: UV-Vis titration, Scatchard; details: PBS
E. coli ATCC 25925 = experiment: Broth microdilution MIC, E. coli ATCC 25925; type: cell-based; details: Escherichia coli, ATCC25925; Table S2
Outline: as §1

polyA-polyU [3] = experiment: UV–Vis titration with polyA-polyU (Scatchard); type: binding; details: for Hypochromic effect H/%, polyA-polyU (from experimental data): footnote e: calculated from experimental data; for log Ks, polyA-polyU: binding constant, Scatchard
Outline: as §2

[4] = system: polyG-polyC (polyC-polyG) (RNA, polymer) G/C; experiment: UV-Vis titration, Scatchard; details: PBS, I = 0.05 M (Table 1 says I = 0.015 M), cations not specified, I = 0.015 M (Methods: 0.05 M)
polyC-polyG = experiment: UV–Vis titration with polyC-polyG (Scatchard); type: binding; details: PBS, pH 7; for log Ks, polyC-polyG: binding constant, Scatchard; for Hypochromic effect H/%, polyC-polyG: UV–Vis titration, calculated by Scatchard equation
Outline: as §2

[5] = system: Gram-positive and Gram-negative bacteria; experiment: Anti-microbial activity overall (all tested bacteria); type: cell-based; details: summary over tested strains; read-out: MIC, anti-microbial activities overall
Experimental: The compounds were evaluated for their in vitro anti-bacterial activity against Gram-positive bacteria: S. aureus (ATCC 25923), MRSA, methicillin-sensitive S. aureus (MSSA), E. faecalis, vancomycin-resistant E. faecium (VREF), and Gram-negative bacteria: E. coli (ATCC 25925), P. aeruginosa (ATCC 27853), A. baumannii (ATCC 19606) and ESBL-producing K. pneumoniae (ATCC 27736). Standard broth microdilution method as recommended in guidelines of Clinical and Laboratory Standards Institute[61] ^, [65] ^, [66] was applied and the minimum inhibitory concentration (MIC) of compounds was tested. In short, testing was performed in U-bottomed 96-well sterile plastic microdilution trays (Falcon 3077, Becton Dickinson Labware, Franklin Lakes, NJ) in cation (Ca^2+ and Mg^2+) adjusted Mueller–Hinton broth medium (Becton Dickinson and Co., Cockeysville, MD). All testings were performed in triplicate.

A. baumannii ATCC 19606 = experiment: Broth microdilution MIC, A. baumannii ATCC 19606; type: cell-based; details: Acinetobacter baumannii, ATCC19606; Table S2
Outline: as §1

S. aureus MSSA = experiment: Broth microdilution MIC, MSSA clinical strain; type: cell-based; details: Staphylococcus aureus
Outline: (§3)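 MICs were set by CLSI broth microdilution in cation (Ca2+, Mg2+)-adjusted Mueller–Hinton broth, in triplicate. Panel: S. aureus ATCC 25923, MRSA, MSSA, E. faecalis, VRE E. faecium, E. coli ATCC 25925, P. aeruginosa ATCC 27853, A. baumannii ATCC 19606 and ESBL K. pneumoniae ATCC 27736.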

S. aureus ATCC 25923 = experiment: Broth microdilution MIC, S. aureus ATCC 25923; type: cell-based; details: Staphylococcus aureus, ATCC25923; Table S2
Outline: as §1

E. faecalis ATCC 29212 = experiment: Broth microdilution MIC, E. faecalis ATCC 29212; type: cell-based; details: Enterococcus faecalis, ATCC29212; Table S2
Outline: as §1

E. faecium VRE = experiment: Broth microdilution MIC, VRE clinical strain; type: cell-based; details: Enterococcus faecium
Outline: as §3

S. aureus MRSA = experiment: Broth microdilution MIC, MRSA clinical strain; type: cell-based; details: Staphylococcus aureus, antibiotic-resistant clinical strain
Outline: as §3

[6] = system: bloodstream form T. brucei (strain 221); experiment: Anti-trypanosomal screening, resazurin; type: cell-based; details: Trypanosoma brucei, mean of triplicate ± SEM
Outline: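 Parasites grown in modified Iscove's medium with compound in triplicate; resazurin added at 48 h and plates read after a further 16 h.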

K. pneumonia ATCC 700803 = experiment: Broth microdilution MIC, K. pneumoniae ATCC 700803; type: cell-based; details: Klebsiella pneumoniae, ATCC700803; Table S2
Outline: as §1

ctDNA = experiment: Thermal melting (ΔTm) of ctDNA; type: binding, calf; details: PBS, pH 7
Outline: (§4)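 UV melting monitored at 260 nm in 1 cm cuvettes, ligand absorbance subtracted and normalised; ΔTm = Tm(complex) − Tm(free nucleic acid), mean of at least two runs, error ±0.5 °C. Compound tested at r = 0.1, 0.3, 0.5 and 0.7 eq ([compound]/[polynucleotide]) with ctDNA and polyA-polyU.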

[7] = system: polyA-polyU (RNA, polymer) A/U; experiment: UV melting at 260 nm; details: PBS, I = 0.05 M, cations not specified, pH 7, r = 0.3 [compound]/[polynucleotide], error ±0.5, biphasic, second midpoint 6.38, per base
polyA-polyU [8] = experiment: Thermal melting (ΔTm) of polyA-polyU; type: binding; details: for ΔTm, polyA-polyU, r = 0.1: PBS, pH 7; for ΔTm, polyA-polyU, r = 0.3 / ΔTm, polyA-polyU, r = 0.5: first melting midpoint; for ΔTm, polyA-polyU, r = 0.3, second melting midpoint / ΔTm, polyA-polyU, r = 0.5, second melting midpoint: footnote c: biphasic melting curve
Outline: as §4

[9] = system: L6 cells (a rat myoblast line); experiment: Cytotoxicity against mammalian cells, resazurin; type: cell-based; details: L6, 144 h, 6 d incubation
Experimental: Cytotoxicity against mammalian cells was also assessed using microtitre plates. Briefly, L6 cells (a rat myoblast line) were seeded at 1 × 10^4 ml^−1 in 200 µl of growth medium containing different compound concentrations. The plates were then incubated for 6 d at 37 °C and 20 µl resazurin added to each well. After a further 8 h incubation, the fluorescence was determined using a Spectramax plate reader, as outlined above.

[10] = UV–Vis titration, PBS, pH 7, calculated by Scatchard equation

Row | log Ks, polyC-polyG (polyC-polyG) | MIC [5] [µg/mL] | Structure (SMILES) | MIC (P. aeruginosa ATCC 27853) [µg/mL] | Hypochromic effect H/%, ctDNA (from experimental data) (calf thymus ctDNA; UV–Vis titration, PBS, pH 7) | MIC (E. coli ATCC 25925) [µg/mL] | Hypochromic effect H/%, polyA-polyU (from experimental data) (polyA-polyU [3]) | MIC (A. baumannii ATCC 19606) [µg/mL] | MIC (S. aureus MSSA) [µg/mL] | MIC (S. aureus ATCC 25923) [µg/mL] | MIC (E. faecalis ATCC 29212) [µg/mL] | MIC (E. faecium VRE) [µg/mL] | MIC (S. aureus MRSA) [µg/mL] | IC50 [6] [nM] | IC90 [6] [µM] | MIC (K. pneumonia ATCC 700803) [µg/mL] | log Ks, polyA-polyU (polyA-polyU [3]; PBS, pH 7) | Hypochromic effect H/%, polyC-polyG (polyC-polyG) [%] | ΔTm, polyA-polyU, r = 0.1 (polyA-polyU [8]) [°C] | IC50 [9] [µM] | melting point [°C] | other results
1 |  |  | CC1CS(=O)(=O)CCN1/N=C/c1ccc([N+](=O)[O-])o1 (centres unmarked) [Nifurtimox, nifurtimox] |  |  |  |  |  |  |  |  |  |  |  |  |  |  |  |  |  |  | IC50 [1]: 4.4 ± 0.7 µM
2 | 6.21 | ≥ 128 | c1ccc(-n2cc(COc3ccc(-c4nc5cc(C6=NCCN6)ccc5[nH]4)cc3)nn2)cc1 [Compound 9a] | > 256 | 25.7 ^e % | 256 (≈ 588 µM) | 32.7 ^e % | > 256 | 128 (≈ 294 µM) | 128 (≈ 294 µM) | 128 (≈ 294 µM) | 128 (≈ 294 µM) | 128 (≈ 294 µM) | 7900 ± 400 | 17.2 ± 1.2 | > 256 |  |  |  |  |  | binding ([2]; pH 7, changes too small for accurate calculation, compound 14.8 µM): weak; log Ks ([4]; pH 7, n fixed, per base): 6.21
3 | 6.27 | ≥ 128 | COc1ccc(-n2cc(COc3ccc(-c4nc5cc(C(=N)N)ccc5[nH]4)cc3)nn2)cc1.Cl.Cl [Compound 7b, 2–(4-((1–(4-Methoxyphenyl)-1H-1,2,3-triazol-4-yl)methoxy)phenyl)-1H-benz[d]imidazole-5-carboximidamide dihydrochloride] | > 256 | 22.1 ^e % | > 256 | 27.9 ^e % | > 256 |  | > 256 | 128 | 256 |  | 1500 ± 300 | 8.1 ± 0.6 | > 256 |  | 13.7 |  | 302 ± 15 | 195 to 197 | 

Row | Structure (SMILES) | log Ks, polyC-polyG (polyC-polyG) | MIC [5] [µg/mL] | MIC (P. aeruginosa ATCC 27853) [µg/mL] | Hypochromic effect H/%, ctDNA (from experimental data) (calf thymus ctDNA; UV–Vis titration, PBS, pH 7) | MIC (E. coli ATCC 25925) [µg/mL] | Hypochromic effect H/%, polyA-polyU (from experimental data) (polyA-polyU [3]) | MIC (A. baumannii ATCC 19606) [µg/mL] | MIC (S. aureus MSSA) [µg/mL] | MIC (S. aureus ATCC 25923) [µg/mL] | MIC (E. faecalis ATCC 29212) [µg/mL] | MIC (E. faecium VRE) [µg/mL] | MIC (S. aureus MRSA) [µg/mL] | IC50 [6] [nM] | IC90 [6] [µM] | MIC (K. pneumonia ATCC 700803) [µg/mL] | log Ks, polyA-polyU (polyA-polyU [3]; PBS, pH 7) | Hypochromic effect H/%, polyC-polyG (polyC-polyG) [%] | ΔTm, polyA-polyU, r = 0.1 (polyA-polyU [8]) [°C] | IC50 [9] [µM] | melting point [°C] | other results
4 | COc1ccc(-n2cc(COc3ccc(-c4nc5cc(C(=N)NC(C)C)ccc5[nH]4)cc3)nn2)cc1.Cl.Cl [Compound 8b, N-isopropyl-2–(4-((1–(4-methoxyphenyl)-1H-1,2,3-triazol-4-yl)methoxy)phenyl)-1H-benz[d]imidazole-5-carboximidamide dihydrochloride] | 6.39 |  | > 256 |  | 256 |  | > 256 | 64 | 128 | 64 | 128 | 16 | 1100 ± 300 | 3.5 ± 0.2 | > 256 | 5.27 | 5.05 | 1.17 | > 300 | 188 to 191 | Hypochromic effect H/%, ctDNA (calf thymus ctDNA; [10]): 29.7%; log Ks, ctDNA (range r ≥ 0.1) (calf thymus ctDNA; footnote f: mixed binding mode, calculated in range r ≥ 0.1): 6.06; log Ks ([2]; I = 0.05 M (Table 1 says I = 0.015 M), cations not specified, I = 0.015 M (Methods: 0.05 M), pH 7, per base): 5.27; Hypochromic effect H/%, polyA-polyU (polyA-polyU [3]; [10]): 57.8%; log Ks ([4]; pH 7, per base): 6.39; ΔTm, ctDNA, r = 0.5 (ctDNA; r = 0.5): 3.96 °C; ΔTm, ctDNA, r = 0.7 (ctDNA; r = 0.7): 4.47 °C; ΔTm, ctDNA, r = 0.3 (ctDNA; r = [compound]/[polynucleotide] 0.3, error ±0.5 °C): 4.03 °C; ΔTm [7]: 1.32 °C; ΔTm, polyA-polyU, r = 0.3 (polyA-polyU [8]): 1.32 °C; ΔTm, polyA-polyU, r = 0.3, second melting midpoint (polyA-polyU [8]): 6.38^c °C; ΔTm, polyA-polyU, r = 0.5 (polyA-polyU [8]): 1.56 °C; ΔTm, polyA-polyU, r = 0.5, second melting midpoint (polyA-polyU [8]): 8.49^c °C
5 | COc1ccc(-n2cc(COc3ccc(-c4nc5cc(C6=NCCN6)ccc5[nH]4)cc3)nn2)cc1.Cl.Cl [Compound 9b, 5–(4,5-Dihydro-1H-imidazol-2-yl)-2–(4-((1–(4-methoxyphenyl)-1H-1,2,3-triazol-4-yl)methoxy)phenyl)-1H-benz[d]imidazole dihydrochloride] |  | ≥ 128 | > 256 | 18.9 ^e % | 256 | 31.6 ^e % | > 256 | 256 | 128 | 256 | 256 | 256 | 1600 ± 400 | 7.3 ± 0.3 | > 256 | 5.46 |  | 2.49 | 263 ± 15 | 197 to 199 | ΔTm, polyA-polyU, r = 0.3 (polyA-polyU [8]): 2.67 °C; ΔTm, polyA-polyU, r = 0.3, second melting midpoint (polyA-polyU [8]): 36.08^c °C; ΔTm, polyA-polyU, r = 0.5 (polyA-polyU [8]): 2.92 °C; ΔTm, polyA-polyU, r = 0.5, second melting midpoint (polyA-polyU [8]): 40.93^c °C
